The results in this text go back to patent US8299048B2, “Hexahydrocyclopentyl[f]indazole sulfonamides and derivatives thereof as selective glucocorticoid receptor modulators” (Merck Sharp & Dohme Corp., priority 2008, dated 2012).

The assay deals with T1, human GR (Homo sapiens, UniProt P04150).
T1 sequence (P04150 1-777): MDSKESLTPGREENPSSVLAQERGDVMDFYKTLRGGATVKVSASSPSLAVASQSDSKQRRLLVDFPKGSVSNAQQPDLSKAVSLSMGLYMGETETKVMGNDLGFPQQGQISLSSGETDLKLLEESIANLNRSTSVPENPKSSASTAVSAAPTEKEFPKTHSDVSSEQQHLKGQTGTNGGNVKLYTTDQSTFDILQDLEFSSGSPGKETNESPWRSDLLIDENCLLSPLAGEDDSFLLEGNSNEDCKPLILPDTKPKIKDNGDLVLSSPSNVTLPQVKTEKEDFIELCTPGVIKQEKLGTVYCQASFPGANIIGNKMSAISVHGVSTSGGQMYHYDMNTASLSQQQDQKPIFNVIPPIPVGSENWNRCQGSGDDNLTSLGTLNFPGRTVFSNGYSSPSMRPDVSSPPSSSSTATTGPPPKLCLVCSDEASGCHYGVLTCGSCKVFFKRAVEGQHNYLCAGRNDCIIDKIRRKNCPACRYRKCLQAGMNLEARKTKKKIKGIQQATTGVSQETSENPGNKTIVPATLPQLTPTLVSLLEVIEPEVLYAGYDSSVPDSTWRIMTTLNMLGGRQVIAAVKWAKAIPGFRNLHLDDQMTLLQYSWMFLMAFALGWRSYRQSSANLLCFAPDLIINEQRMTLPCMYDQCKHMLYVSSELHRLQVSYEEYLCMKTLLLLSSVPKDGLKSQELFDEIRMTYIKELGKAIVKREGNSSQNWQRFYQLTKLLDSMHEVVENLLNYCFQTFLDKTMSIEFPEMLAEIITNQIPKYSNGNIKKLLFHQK
The assay is described as follows: Trans-Activation Modulation of Glucocorticoid Receptor (GRAMMER), MMTV-LUC reporter, agonist mode. It is filed as cell-based. Also on record: endogenous in cells. Particulars: for Emax: A549, A549 cells, maximum activity, read-out: Transactivation A549 Cells GRAMMER Emax; for EC50: A549 cells, inflection point, read-out: Transactivation A549 Cells GRAMMER IP. In a few lines: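 Readout is luciferase from a modified MMTV LTR promoter after 24 h compound exposure alongside 10 nM dexamethasone (100% activity reference), DMSO ≤1%.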

As to `C[C@]12Cc3cnn(-c4ccc(F)cc4)c3C=C1CC[C@@H]2CN(CC1CC1)S(=O)(=O)/C=C/c1ccccc1` [Example 13, (E)-N-(cyclopropylmethyl)-N-{[(4αR,5S)-1-(4-fluorophenyl)-4α-methyl-1,4,4α,5,6,7-hexahydrocyclopenta[f]indazol-5-yl]methyl}-2-phenylethylenesulfonamide], the Emax came to 8.3% and the EC50 was 82.9 nM.
`CNC(=O)Nc1ccc(S(=O)(=O)N(CC2CC2)C[C@H]2CCC3=Cc4c(cnn4-c4ccc(F)cc4)C[C@@]32C)c(Cl)c1` [Example 14, 2-chloro-N-(cyclopropylmethyl)-N-{[(4αR,5S)-1-(4-fluorophenyl)-4α-methyl-1,4,4α,5,6,7-hexahydrocyclopenta[f]indazol-5-yl]methyl}-4-{[(methylamino)carbonyl]amino}-benzenesulfonamide]: the Emax was 25.2% and the EC50 came to 344 nM.
The like results for `C[C@]12Cc3cnn(-c4ccc(F)cc4)c3C=C1CC[C@@H]2CN(CC1CC1)S(=O)(=O)c1ccc(F)c(Cl)c1` [Example 15, 3-chloro-N-(cyclopropylmethyl)-4-fluoro-N-{[(4αR,5S)-1-(4-fluorophenyl)-4α-methyl-1,4,4α,5,6,7-hexahydrocyclopenta[f]indazol-5-yl]methyl}benzenesulfonamide] were, in that order, 27.6% and 292 nM.
With `C[C@]12Cc3cnn(-c4ccc(F)cc4)c3C=C1CC[C@@H]2CN(CCC#N)S(=O)(=O)c1ccccc1F` [Example 16, N-(2-cyanoethyl)-2-fluoro-N-{[(4αR,5S)-1-(4-fluorophenyl)-4α-methyl-1,4,4α,5,6,7-hexahydrocyclopenta[f]indazol-5-yl]methyl}benzenesulfonamide], the Emax was 53% and the EC50 is 254 nM.
Turning to `C[C@]12Cc3cnn(-c4ccc(F)cc4)c3C=C1CC[C@@H]2CN(CCO)S(=O)(=O)c1ccccc1F` [Example 17, 2-fluoro-N-{[(4αR,5S)-1-(4-fluorophenyl)-4α-methyl-1,4,4α,5,6,7-hexahydrocyclopenta[f]indazol-5-yl]methyl}-N-(2-hydroxyethyl)benzenesulfonamide], the Emax was 37.3% and the EC50 came out at 220 nM.
Take `COC(=O)c1ccccc1S(=O)(=O)N(CC1CC1)C[C@H]1CCC2=Cc3c(cnn3-c3ccc(F)cc3)C[C@@]21C` [Example 18, methyl 2-[((cyclopropylmethyl){[(4αR,5S)-1-(4-fluorophenyl)-4α-methyl-1,4,4α,5,6,7-hexahydrocyclopenta[f]indazol-5 yl]methyl}amino)sulfonyl]benzoate]: the Emax was found to be 20% and the EC50 stood at 394 nM.
As to `C[C@]12Cc3cnn(-c4ccc(F)cc4)c3C=C1CC[C@@H]2CN(CCO)S(=O)(=O)c1ccc(F)c(Cl)c1` [Example 19, 3-chloro-4-fluoro-N-{[(4αR,5S)-1-(4-fluorophenyl)-4α-methyl-1,4,4α,5,6,7-hexahydrocyclopenta[f]indazol-5-yl]methyl}-N-(2-hydroxyethyl)benzenesulfonamide], the Emax amounted to 20.6% and the EC50 stood at 1190 nM.
As to `C[C@]12Cc3cnn(-c4ccc(F)cc4)c3C=C1CC[C@@H]2CN(CC#N)S(=O)(=O)c1ccc(F)c(Cl)c1` [Example 20, 3-chloro-N-(cyanomethyl)-4-fluoro-N-{[(4αR,5S)-1-(4-fluorophenyl)-4α-methyl-1,4,4α,5,6,7-hexahydrocyclopenta[f]indazol-5-yl]methyl}benzenesulfonamide], the Emax stood at 68.1% and the EC50 was found to be 910 nM.
As for `C[C@]12Cc3cnn(-c4ccc(F)cc4)c3C=C1CC[C@@H]2CN(CC1CC1)S(=O)(=O)Cc1ccccc1` [Example 21, N-(cyclopropylmethyl)-N-{[(4αR,5S)-1-(4-fluorophenyl)-4α-methyl-1,4,4α,5,6,7-hexahydrocyclopenta[f]indazol-5-yl]methyl}-1-phenylmethanesulfonamide], the Emax was 33.5% and the EC50 was found to be 519 nM.
The like results for `Cc1oncc1S(=O)(=O)N(CC#N)C[C@H]1CCC2=Cc3c(cnn3-c3ccc(F)cc3)C[C@@]21C` [Example 23, N-(cyanomethyl)-N-{[(4αR,5S)-1-(4-fluorophenyl)-4α-methyl-1,4,4α,5,6,7-hexahydrocyclopenta[f]indazol-5-yl]methyl}-5-methylisoxazole-4-sulfonamide] were, in that order, 2.7% and 8790 nM.
For `C[C@]12Cc3cnn(-c4ccc(F)cc4)c3C=C1CC[C@@H]2CN(CC#N)S(=O)(=O)c1cc(Cl)c(Cl)s1` [Example 24, 4,5-dichloro-N-(cyanomethyl)-N-{[(4αR,5S)-1-(4-fluorophenyl)-4α-methyl-1,4,4α,5,6,7-hexahydrocyclopenta[f]indazol-5-yl]methyl}thiophene-2-sulfonamide], the Emax is 10.5% and the EC50 was 845 nM.
For the compound `C[C@]12Cc3cnn(-c4ccc(F)cc4)c3C=C1CC[C@@H]2CN(CC#N)S(=O)(=O)c1ccc(F)c(F)c1` [Example 25, N-(cyanomethyl)-3,4-difluoro-N-{[(4αR,5S)-1-(4-fluorophenyl)-4α-methyl-1,4,4α,5,6,7-hexahydrocyclopenta[f]indazol-5-yl]methyl}benzenesulfonamide], the Emax is 76.4% and the EC50 is 453 nM.
Turning to `C[C@]12Cc3cnn(-c4ccc(F)cc4)c3C=C1CC[C@@H]2CN(CC#N)S(=O)(=O)c1cccc(Cl)c1Cl` [Example 26, 2,3-dichloro-N-(cyanomethyl)-N-{[(4αR,5S)-1-(4-fluorophenyl)-4α-methyl-1,4,4α,5,6,7-hexahydrocyclopenta[f]indazol-5-yl]methyl}benzenesulfonamide], the Emax came out at 5.8% and the EC50 stood at 939 nM.
On to `C[C@]12Cc3cnn(-c4ccc(F)cc4)c3C=C1CC[C@@H]2CN(CC#N)S(=O)(=O)c1ccc(Cl)c(C(F)(F)F)c1` [Example 27, 4-chloro-N-(cyanomethyl)-N-{[(4αR,5S)-1-(4-fluorophenyl)-4α-methyl-1,4,4α,5,6,7-hexahydrocyclopenta[f]indazol-5-yl]methyl}-3-(trifluoromethyl)benzenesulfonamide], for which the Emax was determined as 3% and the EC50 stood at 994 nM.
On to `C[C@]12Cc3cnn(-c4ccc(F)cc4)c3C=C1CC[C@@H]2CN(CC#N)S(=O)(=O)c1ccc(C#N)cc1` [Example 28, 4-cyano-N-(cyanomethyl)-N-{[(4αR,5S)-1-(4-fluorophenyl)-4α-methyl-1,4,4α,5,6,7-hexahydrocyclopenta[f]indazol-5-yl]methyl}benzenesulfonamide], for which the Emax worked out at 44% and the EC50 is 483 nM.
In the case of `Cc1cc(S(=O)(=O)N(CC#N)C[C@H]2CCC3=Cc4c(cnn4-c4ccc(F)cc4)C[C@@]32C)c(C)cc1Cl` [Example 29, 4-chloro-N-(cyanomethyl)-N-{[(4αR,5S)-1-(4-fluorophenyl)-4α-methyl-1,4,4α,5,6,7-hexahydrocyclopenta[f]indazol-5-yl]methyl}-2,5-dimethylbenzenesulfonamide], the Emax stood at 4.7% and the EC50 was determined as 1710 nM.
Regarding `C[C@]12Cc3cnn(-c4ccc(F)cc4)c3C=C1CC[C@@H]2CN(CC#N)S(=O)(=O)Cc1cccc(C(F)(F)F)c1` [Example 30, N-(cyanomethyl)-N-{[(4αR,5S)-1-(4-fluorophenyl}-4α-methyl-1,4,4α,5,6,7-hexahydrocyclopenta[f]indazol-5-yl]methyl}-1-[3-(trifluoromethyl)phenyl]methanesulfonamide], the Emax was 3.5% and the EC50 worked out at 1640 nM.

A word on the Emax: it is the maximal effect, on the per cent scale that the assay sets.
